{"source": "patent US10837969B2", "about": "“Therapeutic and diagnostic methods for autism spectrum disorders and other conditions” (THE JOHNS HOPKINS UNIVERSITY, priority 2012, dated 2020)", "key": {"human NSC": {"test_system": "human NSC", "experiment": "NSC proliferation by BrdU incorporation", "format": "cell-based", "conditions": "preliminary in vitro study", "experimental": "Cell Cultures. Reagents for cell culture were purchased from Invitrogen (Carlsbad, Calif.) if not otherwise specified. Human NPC were cultured as published previously ^24 in accordance with NIH guidelines and following approval by the Institutional Review Board at Johns Hopkins University and the National Institutes of Health. Briefly, human fetal brain specimens of 7-8 weeks gestation were obtained from Birth Defects Research Laboratory, University of Washington, Seattle. The tissues were then triturated into single cells after removing meninges and blood vessels. […] NSC cultures were ready for experiments 4-5 days after replating and >98% of the cells expressed the neural stem cell marker, nestin while <1% of the cells expressed glial fibrillary acidic protein (GFAP, a marker for astrocytes) or beta-III tubulin (a neuronal cell marker) as determined by immunocytochemistry.\nCell Proliferation and Differentiation Assays. Cell proliferation was assessed by BrdU incorporation. […]\nMCAD-IgG Inhibits NSC Proliferation. […] The number of proliferating cells were determined by calculating the percentage of BrdU immunopositive cells. […] Cell toxicity was also evaluated using cellquanti-blue assay. […]"}, "[1]": {"test_system": "NSC treated with MCAD-IgG", "experiment": "Attenuation of MCAD-IgG effect on NSC differentiation (beta-III tubulin/GFAP immunostaining)", "format": "cell-based, human", "experimental": "Cell Proliferation and Differentiation Assays. Cell proliferation was assessed by BrdU incorporation. The cells were first treated with MCAD or control antibodies for 18 hours and then for 6 hours with BrdU (Sigma) followed by immunostaining for BrdU. When subjected to differentiation, media was replaced with DMEM/F12 containing 2% FBS. The NPC were capable of differentiating into neurons (40-60%) and astrocytes (20-50%) after 4-7 days. Immunocytochemistry. Cells were fixed in 4% (w/v) paraformaldehyde and permeabilized by incubation in 0.5% (v/v) Triton X-100 in PBS (PBS-T) for 20 min. For BrdU staining, the cells were also denatured in 2N HCl at 37° C. for 30 min and rinsed twice in 0.1 M sodium borate, pH 8.5. Cells were immunostained using monoclonal anti-BrdU (1:1000; Sigma-Aldrich), monoclonal anti-β-III-tubulin (1:1000; Promega), rabbit anti-GFAP (1:1000; Sigma-Aldrich), monoclonal anti-AT-1 (1:50; Abcam, Cambridge Mass.) or rabbit anti-active caspase-3 (1:1000; Sigma-Aldrich), followed by corresponding secondary antibodies (anti-rabbit Alexa Fluor 488, 1:400; anti-mouse Alexa Fluor […], 1:400; Invitrogen) and 4′,6-diamidino-2-phenylindole (DAPI) for nuclear staining. Images were acquired on a Zeiss LSM 510 META multiphoton confocal system (Carl Zeiss). […] Neurogenesis was determined after 4 days using immunostaining for beta-III tubulin and GFAP."}, "NSC": {"test_system": "NSC", "experiment": "CellQuanti-Blue cytotoxicity assay", "format": "cell-based", "conditions": "higher concentrations, 10-100 uM", "experimental": "Cytotoxicity Assays. Cytotoxicity was determined by using CellQuanti-Blue Cell Viability Assay kit (BioAssay Systems) as previously published^24. Briefly, NSCs were cultured in poly-D-lysine coated 96-well plates and used for experiments at ˜60% confluence. […] After 24 hours, CellQuanti-Blue solution (10 μl/well) was added and the cells were incubated for 1 hour. The fluorescence was quantified at an excitation wavelength of 530 nm and emission wavelength of 590 nm using a fluorescence plate reader.\nMCAD-IgG Inhibits NSC Proliferation. The effect of MCAD on NSC proliferation was studied by exposing cultured human NSC to corresponding concentrations (1:500 to 1:50) of MCAD or MUC antibodies for 24 hours in the presence of BrdU for the last 6 hours. The number of proliferating cells were determined by calculating the percentage of BrdU immunopositive cells. […] Another group of NSC similarly treated with the MCAD or MUC antibodies were also immunostained for active-caspase-3 to determine if MCAD-IgG could induce apoptosis in these cells. […] Cell toxicity was also evaluated using cellquanti-blue assay. To exclude the effect of cell proliferation, NSC cultures were treated with MCAD- or MUC-IgG in growth factor-free media for 24 hours before the cellquanti-blue solution was added. […] Thus MCAD-IgG inhibited NSC proliferation without causing cell death."}, "AT-1 receptor": {"biological_target": "T1, AT-1 receptor (Homo sapiens, UniProt P30556)", "T1 construct": "found prominent expression of the receptor on the cell surface; endogenous in cells; host or cells: human fetal brain-derived neural stem/progenitor cells (NSC/NPC), 7-8 weeks gestation", "T1 sequence (P30556 1-359)": "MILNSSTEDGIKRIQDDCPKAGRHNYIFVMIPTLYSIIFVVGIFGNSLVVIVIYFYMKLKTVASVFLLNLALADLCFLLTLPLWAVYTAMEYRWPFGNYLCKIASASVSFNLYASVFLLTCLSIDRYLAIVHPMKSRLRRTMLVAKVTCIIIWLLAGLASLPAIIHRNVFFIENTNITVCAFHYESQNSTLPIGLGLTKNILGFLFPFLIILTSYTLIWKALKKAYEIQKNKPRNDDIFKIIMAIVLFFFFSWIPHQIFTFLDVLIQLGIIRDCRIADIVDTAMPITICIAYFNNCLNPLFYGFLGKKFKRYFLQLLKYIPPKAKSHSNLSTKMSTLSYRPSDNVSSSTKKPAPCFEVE", "conditions": "in vitro, IgG from pre-eclamptic patients; cited from earlier work"}}, "data": [{"smiles": "Fc1ccc([C@@H]2CCNC[C@H]2COc2ccc3c(c2)OCO3)cc1", "note": "[Paroxetine, paroxetine]", "values": [{"measurement": "proliferation of NSC", "setting": "human NSC", "result": "increased proliferation of NSC in a concentration-dependent manner"}, {"measurement": "effect on MCAD-IgG caused inhibition of neurogenesis and enhanced astroglial differentiation", "setting": "[1]; 20 nM-2 uM, 1 hour prior to MCAD-IgG (1:50), after 4 days", "result": "reversed MCAD-IgG caused inhibition of neurogenesis and enhanced astroglial differentiation"}]}, {"smiles": "CCCc1nc2c(C)cc(-c3nc4ccccc4n3C)cc2n1Cc1ccc(-c2ccccc2C(=O)O)cc1", "note": "[Telmisartan]", "values": [{"measurement": "toxicity in cells, cellquanti-blue", "setting": "NSC", "result": "caused toxicity in cells"}, {"measurement": "effect on MCAD-IgG caused changes in neuronal and astroglial differentiation", "setting": "[1]; 10 nM, pretreatment 30 min prior to IgG", "result": "significantly attenuated MCAD-IgG caused effect on neuronal and astroglial differentiation"}]}, {"smiles": "CCCCc1nc(Cl)c(CO)n1Cc1ccc(-c2ccccc2-c2nn[nH]n2)cc1", "note": "[losartan]", "values": [{"measurement": "blockade of patient IgG-induced constriction of villus veins and arteries", "setting": "AT-1 receptor", "result": "could be blocked"}]}]}
